ChEMBL document CHEMBL1201862, “PubChem BioAssay data set” (2004)
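Tested at 5 concentrations; 48 h exposure; 96-well plates; endpoints linearly interpolated, else capped at highest concentration. GI50: concentration for 50% inhibition of growth.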 Activity calls are given as the source filed them. No stated cut-off is given here; in the data, active = GI50 up to about 1.1 µM and inactive = higher.

Legend:
Assay in all cases: NCI tumour cell line growth inhibition, 48 h
[1] = system: UACC-62
[2] = system: RPMI-8226
[3] = system: SK-MEL-5
[4] = system: SF-539
[5] = system: CAKI-1
[6] = system: SK-MEL-2
[7] = system: T47D
[8] = system: SK-MEL-28
[9] = system: MDA-N
[10] = system: MDA-MB-435
[11] = system: LOX IMVI
[12] = system: HCT-15
[13] = system: OVCAR-3
[14] = system: U-251
[15] = system: HL-60
[16] = system: HOP-92
[17] = system: BT-549
[18] = system: M14
[19] = system: MCF7
[20] = system: SNB-19
[21] = system: HOP-62
[22] = system: MDA-MB-231
[23] = system: A549
[24] = system: OVCAR-8
[25] = system: SNB-75
[26] = system: COLO 205
[27] = system: RXF 393
[28] = system: A498
[29] = system: NCI-H460
[30] = system: SK-OV-3
[31] = system: SN12C
[32] = system: SF-268
[33] = system: NCI-H23
[34] = system: UACC-257
[35] = system: MOLT-4
[36] = system: PC-3
[37] = system: 786-0
[38] = system: EKVX
[39] = system: CCRF-CEM
[40] = system: OVCAR-4
[41] = system: NCI-H226
[42] = system: HT-29
[43] = system: OVCAR-5
[44] = system: SW-620
[45] = system: ACHN
[46] = system: KM12
[47] = system: K562
[48] = system: SR
[49] = system: IGROV-1
[50] = system: TK-10
[51] = system: NCI-H522
[52] = system: SF-295
[53] = system: Hs-578T
[54] = system: NCI/ADR-RES
[55] = system: HCC 2998
[56] = system: HCT-116
[57] = system: Malme-3M
[58] = system: DU-145
[59] = system: UO-31
[60] = system: SNB-78
[61] = system: M19-MEL
[62] = system: DMS-114
[63] = system: KM-20L2
[64] = system: LXFL 529
[65] = system: DMS-273

Measured: GI50

CN(C1=NS(=O)(=O)N=C(N(C)c2ccccc2)O1)c1ccccc1
inactive: [1] 14.2 µM | [2] 16.9 µM | [3] 7.66 µM | [4] 21.6 µM | [5] 22.1 µM | [6] 16.4 µM | [7] 21.2 µM | [8] 22.8 µM | [9] 15 µM | [10] 13.8 µM | [11] 13.3 µM | [13] 20.3 µM | [14] 16 µM | [15] 13.6 µM | [16] 23.6 µM | [17] 8.38 µM | [18] 18.9 µM | [19] 15 µM | [20] 18.7 µM | [21] 22.9 µM | [22] 17.6 µM | [23] 21.2 µM | [24] 17.4 µM | [25] 16.7 µM | [26] 21.8 µM | [27] 3.55 µM | [28] 20.5 µM | [29] 21.8 µM | [30] 40.1 µM | [31] 18.7 µM | [32] 24.5 µM | [33] 11.5 µM | [34] 19.1 µM | [35] 27.4 µM | [36] > 100 µM | [37] 24.9 µM | [38] 22.2 µM | [39] 13.4 µM | [40] 20.8 µM | [41] 14.9 µM | [42] 22.9 µM | [43] 23.1 µM | [44] 14 µM | [45] 17.3 µM | [46] 17.8 µM | [47] 17.7 µM | [48] 7.06 µM | [49] 23.3 µM | [50] 35.1 µM | [51] 18.5 µM | [52] 21.8 µM | [53] 27.7 µM | [54] 21.8 µM | [55] 20.7 µM | [56] 13.7 µM | [57] 24.2 µM | [58] 21.9 µM | [59] 21.4 µM
15.1 µM: [12]

[N-]=[N+]=NC1(c2ccccc2)C(=O)c2cccc3c2N(CCC3)C1=O (centres undefined)
inactive: [1] 92.7 µM | [2] 27.7 µM | [6] > 100 µM | [8] > 100 µM | [60] 45.1 µM | [13] 29.9 µM | [61] 60.7 µM | [14] 72.3 µM | [15] 21.4 µM | [16] 33.6 µM | [18] 36.9 µM | [20] 97.5 µM | [62] 44.5 µM | [21] > 100 µM | [25] 31.8 µM | [26] 88.3 µM | [27] > 100 µM | [28] 54.6 µM | [29] 92.3 µM | [30] 92.9 µM | [32] 94.2 µM | [33] 49.7 µM | [34] 32.3 µM | [35] 31.8 µM | [37] > 100 µM | [63] > 100 µM | [40] 55.8 µM | [42] 47.4 µM | [43] > 100 µM | [45] 54.1 µM | [46] 43.4 µM | [47] 27.7 µM | [48] 36 µM | [49] 84.9 µM | [51] 27 µM | [52] 34.5 µM | [59] 18.1 µM | [64] 56.9 µM

COC1=C(OC)C(O)(c2ccccc2)C1=O (centres undefined)
inactive: [8] > 100 µM | [60] > 100 µM | [61] > 100 µM | [14] > 100 µM | [15] > 100 µM | [16] > 100 µM | [18] > 100 µM | [20] > 100 µM | [21] > 100 µM | [23] > 100 µM | [24] > 100 µM | [27] > 100 µM | [28] > 100 µM | [29] > 100 µM | [30] > 100 µM | [65] > 100 µM | [32] > 100 µM | [33] > 100 µM | [34] > 100 µM | [35] > 100 µM | [38] > 100 µM | [39] > 100 µM | [42] > 100 µM | [43] > 100 µM | [45] > 100 µM | [46] > 100 µM | [48] > 100 µM | [49] > 100 µM | [50] 22.2 µM | [51] > 100 µM | [52] > 100 µM | [59] > 100 µM

N=c1ccn2c(n1)OC1C(OP(=O)(O)O)C(CO)OC12 (centres undefined)
active: [15] 0.597 µM | [18] 1.02 µM | [23] 0.575 µM | [29] 0.53 µM | [35] 0.147 µM | [39] 0.0467 µM | [45] 1.06 µM
inactive: [1] 10.4 µM | [2] > 100 µM | [3] 55.1 µM | [4] 41.1 µM | [5] > 24.5 µM | [6] > 100 µM | [7] > 100 µM | [8] > 83.4 µM | [9] > 83.9 µM | [10] > 100 µM | [11] 4.52 µM | [13] > 71.3 µM | [14] > 57.8 µM | [16] > 100 µM | [17] > 100 µM | [19] 1.18 µM | [20] 25 µM | [21] 1.21 µM | [22] > 100 µM | [24] 5.45 µM | [25] > 88.3 µM | [26] > 70.6 µM | [27] > 100 µM | [28] 10.8 µM | [30] > 53.6 µM | [31] 20.2 µM | [32] 99.5 µM | [33] 6.93 µM | [34] > 30.2 µM | [36] > 100 µM | [37] 9.77 µM | [38] > 100 µM | [40] > 100 µM | [41] > 100 µM | [42] 10.5 µM | [43] > 100 µM | [44] > 47.2 µM | [46] > 100 µM | [47] > 80 µM | [48] 3.12 µM | [49] > 80.7 µM | [50] > 100 µM | [51] > 80.4 µM | [52] 38.1 µM | [53] > 100 µM | [54] 22.5 µM | [55] 11 µM | [56] 2.06 µM | [57] > 100 µM | [58] 7.31 µM | [59] 7.64 µM
> 100 µM: [12]

COc1ccc(-n2/c(=N/C(=S)N(C)C)ss/c2=N\C(=S)N(C)C)cc1
> 100 µM: [12]
inactive: [1] 4.21 µM | [2] 21 µM | [4] 52.2 µM | [5] > 100 µM | [6] 46.9 µM | [8] 9.35 µM | [11] > 100 µM | [60] 39.4 µM | [13] 19.8 µM | [61] 7.43 µM | [14] 25.6 µM | [15] 17 µM | [18] 36.9 µM | [20] 11.6 µM | [62] 7.36 µM | [21] 50.7 µM | [23] > 100 µM | [24] 37 µM | [25] 22.8 µM | [26] 48 µM | [27] 29.6 µM | [28] > 100 µM | [29] 2.98 µM | [30] 27.8 µM | [31] > 100 µM | [65] 10.7 µM | [32] 77.1 µM | [33] 39.4 µM | [34] > 100 µM | [35] 79.4 µM | [37] 32.7 µM | [38] > 100 µM | [63] 27.7 µM | [40] 4.7 µM | [41] > 100 µM | [42] 2.26 µM | [43] > 100 µM | [44] > 100 µM | [45] > 100 µM | [46] 95.7 µM | [47] 11.6 µM | [48] > 100 µM | [49] 14.2 µM | [50] > 100 µM | [51] 2.54 µM | [52] 68.4 µM | [55] > 100 µM | [56] 13 µM | [57] > 100 µM | [59] > 100 µM
